Experimental data from patent US7132418B2, “Peptidyl heterocyclic ketones useful as tryptase inhibitors” (Ortho-McNeil Pharmaceutical, Inc., priority 1999, dated 2006).

Legend:
Bovine type 1 trypsin = target: T1, Bovine type 1 trypsin (Bos taurus, UniProt P00760); test: Trypsin IC50 method, chromogenic substrate hydrolysis; type: biochemical; conditions: 3.2 U/ml bovine type 1 trypsin, 1.0 mM Spectrozyme TRY
T1 construct: purchased Sigma
T1 sequence (P00760 24-246): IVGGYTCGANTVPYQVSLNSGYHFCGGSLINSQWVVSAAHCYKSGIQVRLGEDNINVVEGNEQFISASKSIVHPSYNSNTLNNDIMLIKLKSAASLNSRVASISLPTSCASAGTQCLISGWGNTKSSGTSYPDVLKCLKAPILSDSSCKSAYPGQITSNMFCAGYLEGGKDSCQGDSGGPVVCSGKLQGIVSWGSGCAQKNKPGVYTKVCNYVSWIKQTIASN
Protocol: (§1) The enzyme reaction is started by the addition of enzyme ([E]: 1.0 nM human Lung Tryptase; Cortex Biochem CP3033). Data is collected over a period of 30 min. and the initial rate of substrate hydrolysis (Vo (mOD/min)) is calculated. Inhibition is calculated by comparing to wells containing no inhibitor (vehicle) and IC50s are determined using a four parameter fit logistics model. • Trypsin IC50 Method: Inhibition of trypsin-catalyzed hydrolysis rates were measured using the same method as the tryptase procedure. Bovine type 1 trypsin (Sigma) and Spectrozyme® TRY (Cbo-Gly-D-Ala-Arg-pNA.AcOH, American Diagnostics) replaced their tryptase equivalents at concentrations of 3.2 U/ml trypsin and 1.0 mM Spectrozyme® TRY.

human Lung Tryptase = target: T2, human Lung Tryptase; test: Tryptase IC50 method, chromogenic substrate hydrolysis; type: biochemical; conditions: 1.0 nM human lung tryptase, 500 μM N-p-Tosyl-GLY-PRO-LYS-pNA, 37° C.
T2 construct: 1.0 nM human Lung Tryptase
Protocol: as §1

trypsin = conditions: pancreatic agents, comparison values; cited from earlier work
[1] = compared with placebo, 16 mild asthmatics, nebulized dry powder formulation; cited from earlier work

IC50 (Bovine type 1 trypsin) | IC50 (human Lung Tryptase) | SMILES | IC50 (trypsin) | improvement for the late airway response [1] | mean maximum decrease of forced expiratory volume in one second for late airway hyperresponsiveness [1]
110 ± 70 nM | 36 ± 4 nM | CN[C@H](Cc1ccccc1)C(=O)N1CCC[C@H]1C(=O)N[C@@H](CC1CCCN(C(=N)N)C1)C(=O)c1nc2ccccc2s1 (stereo partly drawn) [Compound 30, N-Methyl-D-phenylalanyl-N-[(2S)-[1-(aminoiminomethyl)-3-piperidinyl]-1-(2-benzothiazolylcarbonyl)ethyl]-L-prolinamide] |  |  | 
320 nM | 12000 ± 5000 nM | CC(=O)N[C@H]1CCCN(CC(=O)NC(CCCNC(=N)N)C(=O)c2nc3ccccc3s2)C1=O (stereo partly drawn) [Compound 19, (S)-3-Acetamido-N-[4-[(aminoiminomethyl)amino]-1-(2-benzothiazolylcarbonyl)butyl]-2oxo-1-piperidineacetamide] |  |  | 
93 ± 68 nM | 260 ± 10 nM | N=C(N)NCCCC(NC(=O)CCC(N)=O)C(=O)c1nc2ccccc2s1 (stereo not drawn) [Compound 23, N-[4-[(Aminoiminomethyl)amino]-1-(2-benzothiazolylcarbonyl)butyl]butanediamide] |  |  | 
2400 nM | 9400 ± 5700 nM | CC(=O)NC1CCC(C(=O)NC(CCCNC(=N)N)C(=O)c2nc3ccccc3s2)CC1 (stereo not drawn) [Compound 17, 4-Acetamido-N-[4-[(aminoiminomethyl)amino]-1-(2-benzothiazolylcarbonyl)butyl]-cyclohexanecarboxamide] |  |  | 
39 nM | 2400 ± 900 nM | COC(=O)N1CCC[C@H]1C(=O)NC(CCCNC(=N)N)C(=O)c1nc2ccccc2s1 (stereo partly drawn) [Compound 11, (2S)-N-[4-[(Aminoiminomethyl)amino]-1-(2-benzothiazolylcarbonyl)butyl]-1,2-pyrrolidinedicarboxamide, 1-methyl ester] |  |  | 
360 ± 30 nM | 1700 ± 700 nM | CC(=O)N[C@H]1CCC[C@H]1C(=O)NC(CCCNC(=N)N)C(=O)c1nc2ccccc2s1 (stereo partly drawn) [Compound 3, cis-2-Acetylamino-N-[(1S)-4-[(aminoiminomethyl)amino]-1-(2-benzothiazolylcarbonyl)butyl]-1-cyclopentanecarboxamide] |  |  | 
 |  | N=C(N)c1ccc2cc(OC(=O)c3ccc(N=C(N)N)cc3)ccc2c1 [nafamostat] | 13 nM |  | 
 |  | NC(=O)[C@@H]1CCCN1C(=O)[C@H](CCCN=C(N)N)NC(=O)c1ccc2ccccc2c1O [APC-366] |  | 33% | 21%
 |  | CN(C)C(=O)COC(=O)Cc1ccc(OC(=O)c2ccc(NC(=N)N)cc2)cc1 [camostat mesilate] | 10 nM |  | 
46 nM | 340 nM | N=C(N)NCCCC(NC(=O)[C@@H]1CCCN1C(=O)c1ccccc1)C(=O)c1nc2ccccc2s1 (stereo partly drawn) [Compound 34] |  |  | 
17 nM | 440 nM | CC(=O)N[C@@H](CC1CCCCC1)C(=O)NC(CCCNC(=N)N)C(=O)c1nc2ccccc2s1 (stereo partly drawn) [Compound 32] |  |  | 
240 nM | 290 ± 30 nM | CN[C@H](Cc1ccccc1)C(=O)N1CCC[C@H]1C(=O)N[C@@H](Cc1cccc(C(=N)N)c1)C(=O)c1nc2ccccc2s1 [Compound 31, (S)—N-methyl-D-phenylalanyl-N-[1-[[3-(aminoiminomethyl)phenyl]methyl]-2-(2-benzothiazolyl)-2-oxoethyl]-L-prolinamide] |  |  | 
110 nM | 140 ± 80 nM | CS(=O)(=O)N1CCC[C@H]1C(=O)NC(CCCNC(=N)N)C(=O)c1nc2ccccc2s1 (stereo partly drawn) [Compound 6, (2S)-N-[4-[(aminoiminomethyl)amino]-1-(2-benzothiazolylcarbonyl)butyl]-1-methanesulfonyl-2-pyrrolidinecarboxamide] |  |  | 
58 ± 12 nM | 14 ± 5 nM | N=C(N)NCCC[C@H](NC(=O)[C@@H]1CCCN1C(=O)[C@H](CO)NS(=O)(=O)c1cccc2ccccc12)C(=O)c1nc2ccccc2s1 [Compound 29] |  |  | 
210 nM | 100 ± 10 nM | CS(=O)(=O)N1C[C@H](O)C[C@H]1C(=O)NC(CCCNC(=N)N)C(=O)c1nc2ccccc2s1 (stereo partly drawn) [Compound 5, (2S,4R)-N-[4-[(aminoiminomethyl)amino]-1-(2-benzothiazolylcarbonyl)butyl]-4-hydroxy-1-methanesulfonyl-2-pyrrolidinecarboxamide] |  |  | 
36 ± 1 nM | 34 ± 3 nM | N=C(N)NCCC[C@H](NC(=O)[C@@H]1CCCN1C(=O)[C@@H](CC1CCCCC1)NCC(=O)O)C(=O)c1nc2ccccc2s1 [Compound 27, N-(Carboxymethyl)-3-cyclohexyl-D-alanyl-N-[(1S)-4-[(aminoiminomethyl)amino]-1-(2-benzothiazolylcarbonyl)butyl]-L-prolinamide] |  |  | 
160 nM | 180 ± 70 nM | N=C(N)NCCCC(NC(=O)C1CCCCC1C(N)=O)C(=O)c1nc2ccccc2s1 (stereo not drawn) [Compound 16, N-[4-[(Aminoiminomethyl)amino]-1-(2-benzothiazolylcarbonyl)butyl]-1,2-cyclohexanedicarboxamide] |  |  | 
48 ± 1 nM | 110 ± 10 nM | CCCC(CCC)C(=O)N[C@@H](CC(=O)OC)C(=O)N1CCC[C@H]1C(=O)N[C@@H](CCCNC(=N)N)C(=O)c1nc2ccccc2s1 [Compound 26, N-(1-Oxo-2-propylpentyl)-L-α-aspartyl-N-[4-[(aminoiminomethyl)amino]-1-(2-benzothiazolylcarbonyl)butyl]-L-prolinamide, methyl ester] |  |  | 
42 ± 1 nM | 100 ± 40 nM | N=C(N)NCCC[C@H](NC(=O)CN1CCCC[C@H](NS(=O)(=O)Cc2ccccc2)C1=O)C(=O)c1nc2ccccc2s1 [Compound 28, (3S)N-[(1S)-4-[(Aminoiminomethyl)amino]-1-(2-benzothiazolylcarbonyl)butyl]hexahydro-2-oxo-3-[[(phenylmethyl)sulfonyl]amino]-1H-azepine-1-acetamide] |  |  | 
230 ± 110 nM | 1400 ± 800 nM | Cc1ccc(S(=O)(=O)N2CCC[C@H]2C(=O)NC(CCCNC(=N)N)C(=O)c2nc3ccccc3s2)cc1 (stereo partly drawn) [Compound 7, (2S)-N-[4-[(Aminoiminomethyl)amino]-1-(2-benzothiazolylcarbonyl)butyl]-1-[(4-methylphenyl)sulfonyl]-2-pyrrolidinecarboxamide] |  |  | 
19 nM | 180 ± 10 nM | CC(=O)N[C@H](C(=O)NC(CCCNC(=N)N)C(=O)c1nc2ccccc2s1)C(C)C (stereo partly drawn) [Compound 33] |  |  | 

SMILES | IC50 (Bovine type 1 trypsin) | IC50 (human Lung Tryptase) | IC50 (trypsin) | improvement for the late airway response [1] | mean maximum decrease of forced expiratory volume in one second for late airway hyperresponsiveness [1]
CC(=O)N1C[C@H]2C[C@H]2C1C(=O)NC(CCCNC(=N)N)C(=O)c1nc2ccccc2s1 (stereo partly drawn) [Compound 8, (2S)-trans-3-Acetyl-N-[4-[(aminoiminomethyl)amino]-1-(2-benzothiazolylcarbonyl)butyl]-3-azabicyclo(3.1.0)hexane-2-carboxamide] | 190 nM | 110 ± 40 nM |  |  | 
